Results published in PubChem BioAssay (NCI).
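All cell lines were grown in 96-well plates and treated with compound for 48 hours. At the GI50, growth is halved. At the TGI there is no net growth.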

Experiments:
Assay in all cases: inhibition of tumour cell growth, NCI panel, 48 h
SNB-19 CNS = tested on: SNB-19 CNS
HOP-62 NSCLC = tested on: HOP-62 NSCLC
NCI-H226 lung = tested on: NCI-H226 lung
RPMI-8226 leukemia = tested on: RPMI-8226 leukemia
SK-MEL-2 melanoma = tested on: SK-MEL-2 melanoma
MOLT-4 leukemia = tested on: MOLT-4 leukemia

Compound	GI50 (SNB-19 CNS) [µM]	TGI (SNB-19 CNS) [µM]	GI50 (HOP-62 NSCLC) [µM]	TGI (HOP-62 NSCLC) [µM]	GI50 (NCI-H226 lung) [µM]	TGI (NCI-H226 lung) [µM]	GI50 (RPMI-8226 leukemia) [µM]	TGI (RPMI-8226 leukemia) [µM]	GI50 (SK-MEL-2 melanoma) [µM]	TGI (SK-MEL-2 melanoma) [µM]	GI50 (MOLT-4 leukemia) [µM]	TGI (MOLT-4 leukemia) [µM]
Nc1nccc(-c2c(-c3ccc(F)cc3)ncn2CCCN2CCOCC2)n1	> 25	> 25	> 25	> 25	> 25	> 25	> 25	> 25	> 25	> 25	> 25	> 25
COc1cc([N+](=O)[O-])ccc1NC(=O)C(F)(F)F	–	> 100	–	> 100	–	> 100	–	> 100	–	> 100	–	> 100
O=C(O)C(Sc1ccc(Cl)cc1)Sc1ccc(Cl)cc1	–	> 100	–	> 100	–	> 100	–	> 100	–	69.1	–	> 100
COc1ccc(C2CC(=O)c3c(OC)cc(OC)cc3O2)cc1 (stereo not drawn)	> 100	> 100	> 100	> 100	> 100	> 100	> 100	> 100	> 100	> 100	> 100	> 100
COc1cc2c3c(n(CCCBr)c(=O)c2cc1OC)-c1ccc(NC(C)=O)cc1C3=O	3.19	> 100	1.29	21.3	5.17	57.3	5.28	27.2	41.4	> 100	–	–
CC(C)CC(N)C(=O)O (stereo not drawn)	–	> 100	–	> 100	–	> 100	–	> 100	–	> 100	–	> 100
Cc1c2c(nn1-c1ccc(S(=O)(=O)/N=C3\SCC(=O)N3C(=O)c3ccccc3)cc1)-c1ccccc1CC2	–	–	33.5	> 100	24	56.4	–	–	> 100	> 100	> 100	> 100
CC[C@H](C)[C@H](NC(=O)[C@H]1CCCCN1C)C(=O)N(C)[C@H](CCc1nc(C(=O)N[C@@H](Cc2ccccc2)C[C@H](C)C(=O)OC)cs1)C(C)C	0.151	> 25	0.777	> 22.9	1.07	> 12.4	0.0929	8.17	0.104	15.9	0.727	> 25
COC(=O)[C@]12CCC(C)(C)C[C@H]1C1=CC[C@@H]3[C@@]4(C)C/C(=C/c5cccnc5)C(=O)C(C)(C)[C@@H]4CC[C@@]3(C)[C@]1(C)CC2	15.1	77.4	13.6	67	3.97	17.9	2.31	6.39	11.6	32.1	2.12	6.17
CC(C)(C)C1=CC(=CC=C2C=CN(CCCCCCCCCCCO)C=C2)C=C(C(C)(C)C)C1=O	–	3.15	–	3.63	–	–	–	1.94	–	3.5	–	4.74
CC(C)(C)OC(=O)N(CCCN(CCn1c2c(c3ccccc3c1=O)C(=O)c1ccccc1-2)C(=O)OC(C)(C)C)CCn1c2c(c3ccccc3c1=O)C(=O)c1ccccc1-2	> 50	> 50	22.3	> 50	> 50	> 50	7.21	48.6	> 50	> 50	6.46	16
Cn1cc(-c2csc(-c3cccc(F)c3)n2)c2cccnc21	20.1	54.4	18.9	34.5	19.4	51.1	25.2	> 100	23.5	55.2	11.7	34.6
Cc1cc(C)cc(Nc2cc(C)nc3nc(C(F)(F)F)nn23)c1	> 100	> 100	44	> 100	> 100	> 100	> 100	> 100	> 100	> 100	> 100	> 100
N#C/C(C(=S)Nc1ccccc1)=C1/NN=C2c3ccccc3C(=O)NN21	30.4	> 100	44.4	> 100	49.6	> 100	32.3	> 100	21	53.8	32.1	> 100
Cc1[nH]c(N=Nc2ccccc2)nc1N=Nc1ccccc1	3.63	> 87.7	4.09	17.1	2.7	12.4	1.17	8.38	3.59	19.1	2.32	> 41.7
Cn1cc(C2=C(c3cn(CCCN=C(N)N)c4ccccc34)C(=O)NC2=O)c2ccccc21	> 25	> 25	> 25	> 25	> 25	> 25	> 25	> 25	> 18.4	> 25	> 25	> 25
CCCCCCCCCCC(O)C1CCC(C2CCC(C(O)CCCCC(O)CCCCCC(O)CC3=CC(C)OC3=O)O2)O1 (stereo not drawn)	1.41	> 25	7.3	> 25	> 25	> 25	2	> 25	3.62	> 25	2.57	> 25
COc1cccc(N=Cc2c3ccccc3c(=O)n3c2oc2ccccc23)c1	52.2	> 100	13.7	90.1	–	–	6.54	42.6	> 100	> 100	2.66	6
COc1ccc(C(=O)/C=C/c2cccnc2Nc2cc(OC)c(OC)c(OC)c2)cc1	2.82	17.3	2.19	12.7	2.51	8.86	0.885	4.71	7.27	21	2.26	7.64
CCCCn1c(-c2ccc(C(=O)O/N=C(\N)c3ccc(OC)cc3)cc2)nc(-c2ccccc2)c1-c1ccccc1	1.91	5.01	–	–	–	–	–	–	2.75	8.36	–	–

Compound	GI50 (SNB-19 CNS) [µM]	TGI (SNB-19 CNS) [µM]	GI50 (HOP-62 NSCLC) [µM]	TGI (HOP-62 NSCLC) [µM]	GI50 (NCI-H226 lung) [µM]	TGI (NCI-H226 lung) [µM]	GI50 (RPMI-8226 leukemia) [µM]	TGI (RPMI-8226 leukemia) [µM]	GI50 (SK-MEL-2 melanoma) [µM]	TGI (SK-MEL-2 melanoma) [µM]	GI50 (MOLT-4 leukemia) [µM]	TGI (MOLT-4 leukemia) [µM]
O=C(O)c1cc(N=Nc2ccc([As](=O)(O)O)cc2)ccc1O	–	> 100	–	> 100	–	> 100	–	> 100	–	> 100	–	> 100
CC12CCCC(CC(=O)c3[nH]c4ccccc4c31)C2 (stereo not drawn)	1.48	> 100	0.813	50	4.23	33.3	0.656	12.7	1.91	> 59.1	0.492	40.9
C[C@]12CC[C@@H]3c4ccc(O)cc4CC[C@H]3[C@@H]1CC[C@@H]2NS(=O)(=O)c1ccc(C(F)(F)F)cc1	3.28	11.6	2	3.7	1.68	3.2	2.51	6.79	2.13	4	2.61	12.7
C[C@]12CC[C@@H]3c4ccc(Oc5nc(N6CC6)nc(N6CC6)n5)cc4CC[C@H]3[C@@H]1CCC2=O	7.25	21.5	2.23	15.4	3.23	30.8	2.17	7.58	3.16	8.97	0.747	4.97
NC(N)=NC(N)=Nc1cc2ccccc2c2ccccc12	7.69	21.6	8.53	22.8	10.5	25.5	4.49	26	13.6	30.5	2.91	13.7
COc1ccc(-c2cc3c(nn2)-c2ccccc2C3=O)cc1	> 100	> 100	> 100	> 100	> 100	> 100	> 100	> 100	–	> 10	32.8	> 100
CC(=O)[O][Hg][c]1c(C)c(C)c(C)c(C)c1C	1.48	2.89	2.05	4.35	3.65	10	1.8	6.22	1.41	3.37	0.223	1.11
COc1cc2c(/C=C3/C(=O)Nc4cccc(Cl)c43)c(Cl)n(Cc3ccccc3)c2cc1C	9.07	> 100	9.73	53.9	1.78	11.1	4.21	> 23.6	11	68.2	3.7	> 100
COc1cccc(NCc2nnc(Nc3ccc(Cl)cc3)c3ccccc23)c1	3.5	13	2.06	8.48	0.956	6.82	1.48	7.51	0.708	3.98	1.1	7.57
COc1cc([C@@H]2c3cc4c(cc3C(O[C@@H]3O[C@@H]5CO[C@@H](c6cccs6)OC5[C@H](O)[C@H]3O)C3COC(=O)[C@@H]32)OCO4)cc(OC)c1O (stereo partly drawn)	0.0278	17	0.0283	0.137	0.0223	0.149	0.0298	1.28	0.207	0.87	< 0.005	0.0284
CN(C)C(=S)/N=c1\ss/c(=N\C(=S)N(C)C)n1-c1ccc2c(c1)OCO2	–	> 100	–	> 100	–	> 100	–	–	–	> 100	–	–
COc1ccc(-n2cc(-c3cc(OC)c(OC)c(OC)c3)[nH]c2=S)cc1OC	> 100	> 100	> 100	> 100	> 100	> 100	> 100	> 100	> 100	> 100	7.04	> 100
O=C(C[C@@H](C(=O)NCc1cccc(C(F)(F)F)c1)N1C(=O)[C@@H](N2C(=O)OC[C@@H]2c2ccccc2)[C@H]1/C=C/c1ccccc1)NC1CCN(Cc2ccccc2)CC1	9.33	36.5	14.5	27.7	48.2	> 100	2.22	5.31	14.1	30.6	1.59	6.79
C=C1C(=O)O[C@H]2[C@H]1CC/C(COC(=O)/C=C\C(=O)NCc1ccc(Cn3c(=O)sn(-c4ccc(C#N)cc4)c3=O)cc1)=C\CC[C@@]1(C)O[C@@H]21	0.969	2.27	2.52	9	1.36	5.63	0.443	2.59	0.935	2.03	0.84	4.82
CNC1C(=O)C(C)C(O)(C(CC(C)C(O)/C=C/C=C/CNC(=O)C(C)(C)C(O)\C(C)=C/C=C\C=C\Cc2cnc(C)o2)OC)C12C(=O)OC2COC (stereo not drawn) (tested in a mixture with another compound)	–	> 85.9	–	24.1	–	4.92	–	42.4	–	> 71.7	–	35.8
COc1ccc2cc(C(=O)/C=C/c3cccc(OC)c3OC)ccc2c1	15.6	33.5	17.4	34.5	–	–	6.86	> 100	21.3	40.3	3.12	15.6
NCCCCn1c2c(c3ccccc3c1=O)C(=O)c1ccccc1-2	0.389	12.2	0.0528	0.272	0.107	0.458	0.0887	0.932	2.38	> 42.4	–	–
CCOC(=O)c1c(C)n(Cc2ccc(OC)cc2)c2c1cc(O)c1[nH]c3c(c12)CCCC3	4.84	65.2	10.5	24.9	15.5	32.9	3.78	58	2.39	7.05	–	–
COc1cc2c3c(n(CCCCl)c(=O)c2cc1OC)-c1ccccc1C3=O	> 100	> 100	4.49	44.5	–	–	25.4	> 100	> 100	> 100	2.18	96.6
